# System: SLAC/MRL/LPR mice
# Test: Lupus in MRL/LPR mice treated from 16 weeks old, 30 mg/kg (10% aq.) on back skin twice per day
# Assay type: in vivo
# Protocol: . Progression of lupus was monitored once a week by measurement of hematuria, body weight and survival rate. The experiments were carried out in two groups of mice. One group of mice were 8 weeks old and had not shown SLE characteristics (Table 26a). The other group of mice were 16 weeks old, and had shown SLE characteristics (Table 26b).
compound,measurement,setting,value
"CCN(CC)CCOC(=O)c1ccccc1OC(C)=O.Cl [P-1, diethylaminoethyl acetylsalicylate.HCl salt]",Body Weight,week 16,42.6 ± 2.1 g
same,Hematuria (0-4),week 16,1.70 ± 0.26
same,Survival Rate,week 16,10/10
same,Body Weight,week 17,44.2 ± 2.0 g
same,Hematuria (0-4),week 17,1.50 ± 0.17
same,Survival Rate,week 17,10/10
same,Body Weight,week 18,46.6 ± 2.4 g
same,Hematuria (0-4),week 18,1.30 ± 0.15
same,Survival Rate,week 18,10/10
same,Body Weight,week 19,47.9 ± 2.5 g
same,Hematuria (0-4),week 19,0.80 ± 0.13
same,Survival Rate,week 19,10/10
same,Body Weight,week 20,46.8 ± 2.0 g
same,Hematuria (0-4),week 20,0.80 ± 0.13
same,Survival Rate,week 20,10/10
same,Body Weight,week 21,47.2 ± 2.2 g
same,Hematuria (0-4),week 21,0.80 ± 0.13
same,Survival Rate,week 21,10/10
same,Body Weight,week 22,47.6 ± 1.9 g
same,Hematuria (0-4),week 22,0.80 ± 0.20
same,Survival Rate,week 22,10/10
same,Body Weight,week 23,47.1 ± 2.3 g
same,Hematuria (0-4),week 23,0.80 ± 0.20
same,Survival Rate,week 23,10/10
same,Body Weight,week 24,46.8 ± 2.1 g
same,Hematuria (0-4),week 24,0.80 ± 0.20
same,Survival Rate,week 24,10/10
same,Body Weight,week 25,47.2 ± 2.0 g
same,Hematuria (0-4),week 25,0.70 ± 0.15
same,Survival Rate,week 25,10/10
same,Body Weight,week 26,46.9 ± 2.6 g
same,Hematuria (0-4),week 26,0.70 ± 0.15
same,Survival Rate,week 26,10/10
same,Body Weight,week 27,47.3 ± 2.0 g
same,Hematuria (0-4),week 27,0.60 ± 0.22
same,Survival Rate,week 27,10/10
same,Body Weight,week 28,47.6 ± 2.4 g
same,Hematuria (0-4),week 28,0.70 ± 0.15
same,Survival Rate,week 28,10/10
same,Body Weight,week 29,47.2 ± 2.5 g
same,Hematuria (0-4),week 29,0.70 ± 0.15
same,Survival Rate,week 29,10/10
same,Body Weight,week 30,46.4 ± 2.1 g
same,Hematuria (0-4),week 30,0.60 ± 0.22
same,Survival Rate,week 30,10/10
same,Body Weight,week 31,47.1 ± 2.2 g
same,Hematuria (0-4),week 31,0.80 ± 0.20
same,Survival Rate,week 31,10/10
same,Body Weight,week 32,46.6 ± 2.4 g
same,Hematuria (0-4),week 32,0.70 ± 0.15
same,Survival Rate,week 32,10/10
same,Body Weight,week 33,47.3 ± 2.1 g
same,Hematuria (0-4),week 33,0.50 ± 0.17
same,Survival Rate,week 33,10/10
same,Body Weight,week 34,47.6 ± 2.0 g
same,Hematuria (0-4),week 34,0.70 ± 0.15
same,Survival Rate,week 34,10/10
same,Body Weight,week 35,47.2 ± 2.0 g
same,Hematuria (0-4),week 35,0.70 ± 0.15
same,Survival Rate,week 35,10/10
same,Body Weight,week 36,46.9 ± 2.1 g
same,Hematuria (0-4),week 36,0.50 ± 0.17
same,Survival Rate,week 36,10/10
same,Body Weight,week 37,47.4 ± 2.7 g
same,Hematuria (0-4),week 37,0.70 ± 0.15
same,Survival Rate,week 37,10/10
same,Body Weight,week 38,46.9 ± 2.3 g
same,Hematuria (0-4),week 38,0.60 ± 0.22
same,Survival Rate,week 38,10/10
same,Body Weight,week 39,47.2 ± 2.0 g
same,Hematuria (0-4),week 39,0.50 ± 0.17
same,Survival Rate,week 39,10/10
same,Body Weight,week 40,47.6 ± 2.3 g
same,Hematuria (0-4),week 40,0.70 ± 0.15
same,Survival Rate,week 40,10/10
same,Body Weight,week 41,47.7 ± 2.2 g
same,Hematuria (0-4),week 41,0.60 ± 0.22
same,Survival Rate,week 41,10/10
same,Body Weight,week 42,46.9 ± 2.0 g
same,Hematuria (0-4),week 42,0.70 ± 0.15
same,Survival Rate,week 42,10/10
same,Body Weight,week 43,47.5 ± 2.8 g
same,Hematuria (0-4),week 43,0.60 ± 0.22
same,Survival Rate,week 43,10/10
same,Body Weight,week 44,47.6 ± 2.0 g
same,Hematuria (0-4),week 44,0.70 ± 0.15
same,Survival Rate,week 44,10/10
same,Body Weight,week 45,47.9 ± 2.5 g
same,Hematuria (0-4),week 45,0.50 ± 0.17
same,Survival Rate,week 45,10/10
same,Body Weight,week 46,47.6 ± 2.4 g
same,Hematuria (0-4),week 46,0.70 ± 0.15
same,Survival Rate,week 46,10/10
same,Body Weight,week 47,47.3 ± 2.8 g
same,Hematuria (0-4),week 47,0.60 ± 0.22
same,Survival Rate,week 47,10/10
same,Body Weight,week 48,46.6 ± 2.8 g
same,Hematuria (0-4),week 48,0.50 ± 0.17
same,Survival Rate,week 48,10/10
same,Body Weight,week 49,46.9 ± 2.1 g
same,Hematuria (0-4),week 49,0.60 ± 0.22
same,Survival Rate,week 49,10/10
same,Body Weight,week 50,47.1 ± 2.7 g
same,Hematuria (0-4),week 50,0.50 ± 0.17
same,Survival Rate,week 50,10/10
